Reference: ChEMBL document CHEMBL1909046, “DrugMatrix in vitro pharmacology data”

Experiments:
[1] = DRUGMATRIX: Phorbol Ester radioligand binding (ligand: [3H] PDBu); format: cell membranes, Mus musculus, ICR, Brain, Membrane; conditions: Not Active = under 50% inhibition at 10 µM
[2] = biological target: Sodium-dependent dopamine transporter (Homo sapiens, UniProt Q01959); assay: DRUGMATRIX: Dopamine Transporter radioligand binding (ligand: [125I] RTI-55); format: cell membranes, CHO-K1, Membrane; conditions: cho-k1; Not Active = under 50% inhibition at 10 µM
[3] = biological target: T1, Thromboxane-A synthase (Homo sapiens, UniProt P24557); assay: biochemical; format: tissue-based, Platelet; conditions: platelet;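 note: enzyme inhibition assay with PGH2 supplied as substrate; in other assays of this panel Not Active means under 50% inhibition at 10 µM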
T1 sequence (P24557 whole entry): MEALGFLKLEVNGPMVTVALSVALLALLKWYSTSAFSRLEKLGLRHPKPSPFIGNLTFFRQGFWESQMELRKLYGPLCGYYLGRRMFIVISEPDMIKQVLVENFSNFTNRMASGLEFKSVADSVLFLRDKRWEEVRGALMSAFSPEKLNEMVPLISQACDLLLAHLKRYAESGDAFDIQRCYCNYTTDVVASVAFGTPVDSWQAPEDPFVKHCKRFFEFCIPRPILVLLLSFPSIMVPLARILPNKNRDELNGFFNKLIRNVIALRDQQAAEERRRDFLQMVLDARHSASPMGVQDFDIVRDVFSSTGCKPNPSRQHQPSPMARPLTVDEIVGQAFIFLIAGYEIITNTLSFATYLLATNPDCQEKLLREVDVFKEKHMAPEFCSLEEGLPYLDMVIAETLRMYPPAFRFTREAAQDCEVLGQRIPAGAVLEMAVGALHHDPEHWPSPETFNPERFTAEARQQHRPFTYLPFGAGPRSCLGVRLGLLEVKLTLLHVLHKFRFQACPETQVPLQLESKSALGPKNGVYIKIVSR

[4] = biological target: T2, Receptor-type tyrosine-protein phosphatase C (Homo sapiens, UniProt P08575); set-up: species or system Escherichia coli;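 note: inhibition of CD45 enzyme activity measured using DiFMUP as substrate; in other assays of this panel Not Active means under 50% inhibition at 10 µM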
T2 sequence (P08575 whole entry): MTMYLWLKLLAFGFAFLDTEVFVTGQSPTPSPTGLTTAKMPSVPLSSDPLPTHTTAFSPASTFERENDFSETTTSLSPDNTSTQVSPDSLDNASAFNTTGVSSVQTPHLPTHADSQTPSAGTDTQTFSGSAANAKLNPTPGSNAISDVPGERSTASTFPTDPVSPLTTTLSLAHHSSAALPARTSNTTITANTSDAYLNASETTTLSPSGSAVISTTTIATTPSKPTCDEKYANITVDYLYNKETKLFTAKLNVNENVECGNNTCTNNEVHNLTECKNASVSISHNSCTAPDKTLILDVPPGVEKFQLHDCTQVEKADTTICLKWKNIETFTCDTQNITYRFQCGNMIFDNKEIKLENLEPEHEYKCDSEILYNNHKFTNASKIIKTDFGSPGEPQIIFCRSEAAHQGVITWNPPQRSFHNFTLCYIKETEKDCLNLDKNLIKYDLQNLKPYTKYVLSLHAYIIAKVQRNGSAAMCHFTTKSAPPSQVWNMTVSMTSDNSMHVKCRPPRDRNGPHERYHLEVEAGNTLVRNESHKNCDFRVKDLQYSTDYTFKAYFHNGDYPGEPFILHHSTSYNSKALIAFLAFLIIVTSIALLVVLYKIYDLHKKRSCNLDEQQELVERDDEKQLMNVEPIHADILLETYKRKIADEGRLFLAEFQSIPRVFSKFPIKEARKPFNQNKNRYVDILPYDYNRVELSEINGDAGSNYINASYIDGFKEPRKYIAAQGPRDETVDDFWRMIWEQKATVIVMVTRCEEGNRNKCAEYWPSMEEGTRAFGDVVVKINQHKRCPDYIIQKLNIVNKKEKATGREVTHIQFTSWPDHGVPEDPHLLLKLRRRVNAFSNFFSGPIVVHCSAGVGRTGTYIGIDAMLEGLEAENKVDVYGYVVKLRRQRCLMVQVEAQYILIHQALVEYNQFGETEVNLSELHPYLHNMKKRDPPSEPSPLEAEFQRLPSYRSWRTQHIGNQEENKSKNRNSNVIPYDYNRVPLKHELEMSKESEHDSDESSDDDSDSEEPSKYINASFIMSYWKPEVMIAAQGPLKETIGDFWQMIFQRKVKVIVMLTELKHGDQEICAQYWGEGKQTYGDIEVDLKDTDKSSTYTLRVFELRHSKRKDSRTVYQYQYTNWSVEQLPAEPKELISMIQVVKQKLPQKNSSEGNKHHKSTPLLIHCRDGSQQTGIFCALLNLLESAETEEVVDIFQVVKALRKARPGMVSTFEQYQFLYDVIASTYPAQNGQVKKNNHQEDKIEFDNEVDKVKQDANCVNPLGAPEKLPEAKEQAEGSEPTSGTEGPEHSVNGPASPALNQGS

[5] = biological target: Melanocortin receptor 4 (Homo sapiens, UniProt P32245); format: cell membranes, Membrane; conditions: hek293; note: in other assays of this panel Not Active means under 50% inhibition at 10 µM
[6] = biological target: T3, Alpha-1A adrenergic receptor (Rattus norvegicus, UniProt P43140); assay: DRUGMATRIX: Alpha-1A adrenergic receptor radioligand binding (ligand: prazosin); format: cell membranes, Wistar, Submaxillary gland, Membrane; conditions: Not Active = under 50% inhibition at 10 µM
T3 sequence (P43140 whole entry): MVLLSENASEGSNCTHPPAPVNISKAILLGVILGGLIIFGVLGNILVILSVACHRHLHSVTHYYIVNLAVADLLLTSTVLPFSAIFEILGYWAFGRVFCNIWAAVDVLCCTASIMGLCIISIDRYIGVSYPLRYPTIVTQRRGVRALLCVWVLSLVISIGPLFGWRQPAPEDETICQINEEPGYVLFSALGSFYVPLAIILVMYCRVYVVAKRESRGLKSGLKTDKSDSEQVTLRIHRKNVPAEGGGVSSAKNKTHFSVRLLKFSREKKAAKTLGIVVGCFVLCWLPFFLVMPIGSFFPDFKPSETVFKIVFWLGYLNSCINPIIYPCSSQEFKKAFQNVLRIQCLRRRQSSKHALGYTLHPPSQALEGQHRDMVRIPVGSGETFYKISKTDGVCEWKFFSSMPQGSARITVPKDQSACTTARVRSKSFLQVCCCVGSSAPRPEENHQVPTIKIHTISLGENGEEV

Chain of Sodium-dependent dopamine transporter (Q01959 whole entry): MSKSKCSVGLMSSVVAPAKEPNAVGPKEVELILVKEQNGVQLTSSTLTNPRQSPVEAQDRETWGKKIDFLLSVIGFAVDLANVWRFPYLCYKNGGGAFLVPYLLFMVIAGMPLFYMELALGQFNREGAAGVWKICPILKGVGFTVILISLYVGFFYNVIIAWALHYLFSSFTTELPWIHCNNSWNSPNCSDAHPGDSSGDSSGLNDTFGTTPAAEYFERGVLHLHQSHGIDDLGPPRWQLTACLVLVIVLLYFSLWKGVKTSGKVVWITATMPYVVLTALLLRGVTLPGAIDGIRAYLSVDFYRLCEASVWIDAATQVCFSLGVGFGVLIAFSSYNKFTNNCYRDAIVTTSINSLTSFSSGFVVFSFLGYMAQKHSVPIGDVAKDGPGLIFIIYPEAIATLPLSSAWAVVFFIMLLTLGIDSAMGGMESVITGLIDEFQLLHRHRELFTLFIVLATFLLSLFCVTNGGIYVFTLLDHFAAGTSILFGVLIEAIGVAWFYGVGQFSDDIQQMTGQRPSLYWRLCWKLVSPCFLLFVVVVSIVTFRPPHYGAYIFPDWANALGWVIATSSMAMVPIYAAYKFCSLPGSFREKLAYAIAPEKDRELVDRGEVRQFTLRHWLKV
Chain of Melanocortin receptor 4 (P32245 whole entry): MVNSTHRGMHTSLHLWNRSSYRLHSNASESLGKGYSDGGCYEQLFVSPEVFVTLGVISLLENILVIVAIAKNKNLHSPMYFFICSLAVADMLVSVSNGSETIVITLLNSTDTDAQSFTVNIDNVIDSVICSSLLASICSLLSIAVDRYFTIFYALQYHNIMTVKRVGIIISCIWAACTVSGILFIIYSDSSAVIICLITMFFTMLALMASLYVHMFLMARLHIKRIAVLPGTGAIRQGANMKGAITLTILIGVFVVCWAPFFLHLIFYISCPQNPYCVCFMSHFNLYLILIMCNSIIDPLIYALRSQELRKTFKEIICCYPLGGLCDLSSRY

CC1(C)[C@H](C(=O)O)N2C(=O)C[C@H]2S1(=O)=O [SULBACTAM]
Not Active: IC50 [1] | Ki [1] | IC50 [2] | IC50 [3] | IC50 [4] | IC50 [5] | IC50 [6]

C1CCN2C[C@@H]3C[C@@H](CN4CCCC[C@@H]34)[C@H]2C1 [SPARTEINE]
Not Active: IC50 [1] | Ki [1] | IC50 [2] | IC50 [3] | IC50 [4] | IC50 [5] | IC50 [6]

LEAD(IV) ACETATE
Not Active: IC50 [1] | Ki [1] | IC50 [2] | Ki [2] | IC50 [3] | Ki [3] | IC50 [4] | Ki [4] | IC50 [5] | Ki [5] | IC50 [6] | Ki [6]

CC(O)C(=O)O (stereo not drawn) [LACTIC ACID]
Not Active: IC50 [1] | Ki [1] | IC50 [2] | IC50 [3] | IC50 [4] | IC50 [5] | IC50 [6]
